Legend:
human CYP4F2 = human CYP4F2 (Homo sapiens (Human), UniProt P78329); assay: Inhibition test against 20-HETE producing enzyme CYP4F2 (luciferine derivative, luminescence); format: biochemical
Summary of the method: (§1)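 E. coli membranes (100 μg/mL protein) expressing human enzyme, room temperature 60 min, luciferin-derivative luminescence; IC50 from % inhibition. CYP4F2: 50 mM KPO4 pH 7.4, 2.5 μM substrate, 1 mM NADPH. CYP4A11: 100 mM Tris-HCl pH 7.5, 60 μM substrate, NADP+/glucose 6-phosphate/G6PDH regenerating system, 3.3 mM MgCl2.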

human CYP4A11 = human CYP4A11 (Homo sapiens (Human), UniProt Q02928); assay: Inhibition test against 20-HETE producing enzyme CYP4A11 (luciferine derivative, luminescence); format: biochemical
Sequence of human CYP4A11 (Q02928 5-519): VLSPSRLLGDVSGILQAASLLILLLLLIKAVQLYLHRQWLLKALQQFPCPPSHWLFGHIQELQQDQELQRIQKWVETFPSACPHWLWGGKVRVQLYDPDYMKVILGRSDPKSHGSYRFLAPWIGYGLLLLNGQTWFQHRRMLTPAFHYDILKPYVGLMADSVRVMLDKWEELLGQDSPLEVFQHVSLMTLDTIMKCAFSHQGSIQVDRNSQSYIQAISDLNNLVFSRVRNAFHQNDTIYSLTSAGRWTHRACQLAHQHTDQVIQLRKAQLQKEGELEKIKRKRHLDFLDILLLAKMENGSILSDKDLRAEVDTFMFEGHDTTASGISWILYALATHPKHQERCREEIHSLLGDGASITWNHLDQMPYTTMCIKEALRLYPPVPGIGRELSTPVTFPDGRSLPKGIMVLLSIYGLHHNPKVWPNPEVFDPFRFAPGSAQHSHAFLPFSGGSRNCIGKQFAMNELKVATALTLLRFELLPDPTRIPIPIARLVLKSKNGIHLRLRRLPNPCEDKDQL
Summary of the method: as §1

[1] = E. coli membrane fraction expressing human CYP4F2, 2.5 μM luciferine derivative, room temperature 60 minutes
[2] = E. coli membrane fraction expressing human CYP4A11, 60 μM luciferine derivative, room temperature 60 minutes
[3] = human CYP4F2, luciferine derivative, luminescence
[4] = human CYP4A11, luciferine derivative, luminescence

Sequence of human CYP4F2 (P78329 5-520): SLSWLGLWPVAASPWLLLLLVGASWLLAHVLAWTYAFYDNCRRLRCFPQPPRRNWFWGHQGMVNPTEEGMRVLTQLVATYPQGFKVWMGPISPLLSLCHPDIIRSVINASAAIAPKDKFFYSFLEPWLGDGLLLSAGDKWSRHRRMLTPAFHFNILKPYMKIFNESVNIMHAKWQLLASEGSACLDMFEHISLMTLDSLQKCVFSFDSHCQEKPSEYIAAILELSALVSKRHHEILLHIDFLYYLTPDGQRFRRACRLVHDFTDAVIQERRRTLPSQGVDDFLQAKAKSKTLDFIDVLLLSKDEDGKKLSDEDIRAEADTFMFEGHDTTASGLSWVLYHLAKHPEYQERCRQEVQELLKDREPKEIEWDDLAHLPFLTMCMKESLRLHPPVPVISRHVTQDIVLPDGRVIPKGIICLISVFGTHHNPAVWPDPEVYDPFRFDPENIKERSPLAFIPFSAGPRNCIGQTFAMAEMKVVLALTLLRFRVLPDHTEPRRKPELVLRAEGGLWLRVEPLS

IC50 (human CYP4F2; [1]) | IC50 (human CYP4A11; [2]) | IC50 (human CYP4F2; [3]) | IC50 (human CYP4A11; [4]) | SMILES
1100 nM | 1200 nM | – | – | O=C(O)CCNC(=O)c1cc(COc2ccc(-c3ccn[nH]3)nc2)ccn1 [Example 49-1, 3-[[Oxo-[4-[[6-(1H-pyrazol-5-yl)-3-pyridinyl]oxymethyl]-2-pyridinyl]methyl]amino]propanoic Acid]
2800 nM | 75 nM | – | – | O=C(CCCCCCOc1ccc(-c2ccn[nH]2)nc1)NC1(C(=O)O)CCCC1 [Example 50-1, 1-[[1-Oxo-7-[[6-(1H-pyrazol-5-yl)-3-pyridinyl]oxy]heptyl]amino]-1-cyclopentanecarboxylic Acid]
3 nM | 270 nM | – | – | COC(=O)N1CCC(O)(c2cccc(COc3ccc(-c4ccn[nH]4)nc3)c2)CC1 [Example 51-1, Methyl 4-hydroxy-4-[3-[[6-(1-H-pyrazol-5-yl)-3-pyridinyl]oxymethyl]phenyl]-1-piperidinecarboxylate]
3.5 nM | 310 nM | – | – | CN(C)C(=O)N1CCC(O)(c2cccc(COc3ccc(-c4ccn[nH]4)nc3)c2)CC1 [Example 51-2]
4.4 nM | 710 nM | – | – | CC(=O)N1CCC(O)(c2cccc(COc3ccc(-c4ccn[nH]4)nc3)c2)CC1 [Example 52-1, 1-[4-Hydroxy-4-[3-[[6-(1-H-pyrazol-5-yl)-3-pyridinyl]oxymethyl]phenyl]-1-piperidinyl]ethanone]
50 nM | 520 nM | – | – | CC(=O)N1CC(O)(c2cccc(COc3ccc(-c4ccn[nH]4)nc3)c2)C1 [Example 52-2]
190 nM | 110 nM | – | – | NC(=O)c1cccc(COc2ccc(-c3ccn[nH]3)nc2)c1 [Example 53-1, 3-[[6-(1H-Pyrazol-5-yl)-3-pyridinyl]oxymethyl]benzamide]
16 nM | 950 nM | – | – | NC(=O)c1cc(COc2ccc(-c3n[nH]cc3Cl)nc2)ccn1 [Example 53-2]
21000 nM | 70 nM | – | – | CS(=O)(=O)NC(=O)CCCCCOc1ccc(-c2ccn[nH]2)nc1 [Example 54-1, N-Methylsulfonyl-6-[[6-(1H-pyrazol-5-yl)-3-pyridinyl]oxy]hexanamide]
6500 nM | 200 nM | – | – | CC(C)(CCNC(=O)N1CCC[C@@H](COc2ccc(-c3ccn[nH]3)nc2)C1)C(=O)O [Example 55-1, 2,2-Dimethyl-4-[[oxo-[(3R)-3-[[6-(1H-pyrazol-5-yl)-3-pyridinyl]oxymethyl]-1-piperidinyl]methyl]amino]butanoic Acid]
450 nM | 140 nM | – | – | CC(C)S(=O)(=O)Nc1cccc(COc2ccc(-c3ccn[nH]3)nc2)c1 [Example 56-1, N-[3-[[6-(1H-Pyrazol-5-yl)-3-pyridinyl]oxymethyl]phenyl]-2-propanesulfonamide]
7300 nM | 6700 nM | – | – | CS(=O)(=O)N[C@H]1CC[C@@H](Oc2ccc(-c3ccn[nH]3)nc2)CC1 [Example 57-2]
2000 nM | 2000 nM | – | – | CN([C@H]1CC[C@H](Oc2ccc(-c3ccn[nH]3)nc2)CC1)S(C)(=O)=O [Example 57-3]
120 nM | 580 nM | – | – | CS(=O)(=O)NCC12CC(COc3ccc(-c4ccn[nH]4)nc3)(C1)C2 [Example 58-1, N-[[3-[[6-(1H-Pyrazol-5-yl)-3-pyridinyl]oxymethyl]-1-bicyclo[1.1.1]pentanyl]methyl]methanesulfonamide]
5.1 nM | 240 nM | – | – | CN(CC12CC(COc3ccc(-c4ccn[nH]4)nc3)(C1)C2)S(C)(=O)=O [Example 58-2, N-Methyl-N-[[3-[[6-(1H-pyrazol-5-yl)-3-pyridinyl]oxymethyl]-1-bicyclo[1.1.1]pentanyl]methyl]methanesulfonamide]
10 nM | 130 nM | – | – | OC(Cc1cccc(COc2ccc(-c3ccn[nH]3)nc2)c1)C(F)(F)F (stereo not shown) [Example 59-1, 1,1,1-Trifluoro-3-[3-[[6-(1H-pyrazol-5-yl)-3-pyridinyl]oxymethyl]phenyl]-2-propanol]
100 nM | 1800 nM | – | – | OC(c1ccc(COc2ccc(-c3ccn[nH]3)nc2)cc1)C(F)F (stereo not shown) [Example 59-2, 2,2-Difluoro-1-[4-[[6-(1H-pyrazol-5-yl)-3-pyridinyl]oxymethyl]phenyl]ethanol]
41 nM | 1500 nM | – | – | OC(c1ccc(COc2ccc(-c3ccn[nH]3)nc2)cc1)C(F)(F)F (stereo not shown) [Example 59-3]
37000 nM | 8.2 nM | – | – | O=C(O)C(F)(F)c1cccc(COc2ccc(-c3ccn[nH]3)nc2)c1 [Example 60-1, 2,2-Difluoro-2-[3-[[6-(1H-pyrazol-5-yl)-3-pyridinyl]oxymethyl]phenyl]acetic Acid]
130 nM | 29 nM | – | – | OCC(F)(F)c1cccc(COc2ccc(-c3ccn[nH]3)nc2)c1 [Example 60-2, 2,2-Difluoro-2-[3-[[6-(1H-pyrazol-5-yl)-3-pyridinyl]oxymethyl]phenyl]ethanol]
8000 nM | 72 nM | – | – | CS(=O)(=O)NC(=O)NCCCCOc1ccc(-c2ccn[nH]2)nc1 [Example 61-1, 1-Methylsulfonyl-3-[4-[[6-(1-H-pyrazol-5-yl)-3-pyridinyl]oxy]butyl]urea]

IC50 (human CYP4F2; [1]) | IC50 (human CYP4A11; [2]) | IC50 (human CYP4F2; [3]) | IC50 (human CYP4A11; [4]) | SMILES
280 nM | 750 nM | – | – | O=C1CN(CCCCOc2ccc(-c3ccn[nH]3)nc2)C(=O)N1 [Example 61-2, 1-[4-[[6-(1-H-pyrazol-5-yl)-3-pyridinyl]oxy]butyl]imidazolidine-2,4-dione]
1900 nM | 27 nM | – | – | O=c1[nH]c(CCCCCOc2ccc(-c3ccn[nH]3)nc2)no1 [Example 62-2, 3-[5-[[6-(1H-Pyrazol-5-yl)-3-pyridinyl]oxy]pentyl]-4H-1,2,4-oxadiazol-5-one]
12000 nM | 31 nM | – | – | O=C1NC(=O)C(CCCCOc2ccc(-c3ccn[nH]3)nc2)O1 (stereo not shown) [Example 63-1, 5-[4-[[6-(1H-Pyrazol-5-yl)-3-pyridinyl]oxy]butyl]oxazolidine-2,4-dione]
780 nM | 41 nM | – | – | Oc1cc(CCCCOc2ccc(-c3ccn[nH]3)nc2)on1 [Example 64-1, 5-[4-[[6-(1H-Pyrazol-5-yl)-3-pyridinyl]oxy]butyl]-3-isoxazole]
63 nM | 8.1 nM | – | – | O=S(=O)(NCc1cccc(COc2ccc(-c3ccn[nH]3)nc2)c1)C(F)(F)F [Example 65-1, 1,1,1-Trifluoro-N-[[3-[[6-(1-H-pyrazol-5-yl)-3-pyridinyl]oxymethyl]phenyl]methyl]methanesulfonamide]
16 nM | 33 nM | – | – | CS(=O)(=O)c1cc(O)cc(COc2ccc(-c3[nH]ncc3Cl)nc2)c1 [Example 66-1, 3-[[6-(4-Chloro-1H-pyrazol-5-yl)-3-pyridinyl]oxymethyl]-5-methylsulfonylphenol]
2700 nM | > 50000 nM | – | – | NC(=O)c1cc(COc2ccc(-c3[nH]ncc3C(F)F)nc2)ccn1 [Example 67-1, 4-[[6-[4-(Difluoromethyl)-1H-pyrazol-5-yl]-3-pyridinyl]oxymethyl]-2-pyridinecarboxamide]
– | – | 240 nM | 21 nM | O=C(O)[C@@H]1CCc2ccc(COc3ccc(-c4ccn[nH]4)nc3)cc2C1 [Example 69-1-1]
– | – | 200 nM | 25 nM | O=C(O)[C@H]1CCc2ccc(COc3ccc(-c4ccn[nH]4)nc3)cc2C1 [Example 69-1-2]
– | – | 600 nM | 37 nM | O=C(O)[C@@H]1COc2ccc(COc3ccc(-c4ccn[nH]4)nc3)cc2C1 [Example 69-2-1]
– | – | 1100 nM | 36 nM | O=C(O)[C@H]1COc2ccc(COc3ccc(-c4ccn[nH]4)nc3)cc2C1 [Example 69-2-2]
– | – | 110 nM | 23 nM | O=C(O)[C@@H]1CCc2ccc(COc3ccc(-c4ccn[nH]4)nc3)cc2O1 [Example 69-3-1]
– | – | 300 nM | 220 nM | O=C(O)[C@H]1CCc2ccc(COc3ccc(-c4ccn[nH]4)nc3)cc2O1 [Example 69-3-2]
– | – | 670 nM | 40 nM | O=C(O)[C@H]1CCCN(S(=O)(=O)c2cccc(COc3ccc(-c4ccn[nH]4)nc3)c2)C1 [Example 69-4-2]
– | – | 49 nM | 27 nM | O=C(O)/C=C/c1cccc(COc2ccc(-c3ccn[nH]3)nc2)c1F [Example 70-1, (E)-3-[2-Fluoro-3-[[6-(1H-pyrazol-5-yl)pyridin-3-yl]oxymethyl]phenyl]prop-2-enoic Acid]
– | – | 1100 nM | 28 nM | O=C(O)CCc1cccc(COc2ccc(-c3ccn[nH]3)nc2)c1F [Example 70-2, 3-[2-Fluoro-3-[[6-(1H-pyrazol-5-yl)pyridin-3-yl]oxymethyl]phenyl]propanoic Acid]
– | – | 280 nM | 28 nM | O=C(O)C1CC1c1cccc(COc2ccc(-c3ccn[nH]3)nc2)c1F (stereo not shown) [Example 70-3, 2-[2-Fluoro-3-[[6-(1H-pyrazol-5-yl)pyridin-3-yl]oxymethyl]phenyl]cyclopropane-1-carboxylic Acid]
– | – | 56 nM | 150 nM | O=C(O)/C=C/c1cccc(CCOc2ccc(-c3ccn[nH]3)nc2)c1 [Example 70-4]
– | – | 27 nM | 43 nM | O=C(O)/C=C/c1ccc(CCOc2ccc(-c3ccn[nH]3)nc2)cc1F [Example 70-5]
– | – | 47 nM | 76 nM | O=C(O)/C=C/c1ccc(CCOc2ccc(-c3ccn[nH]3)nc2)cc1 [Example 70-6]
– | – | 120 nM | 130 nM | O=C(O)C1CC1c1ccc(CCOc2ccc(-c3ccn[nH]3)nc2)cc1F (stereo not shown) [Example 70-8]

SMILES | IC50 (human CYP4F2; [1]) | IC50 (human CYP4A11; [2]) | IC50 (human CYP4F2; [3]) | IC50 (human CYP4A11; [4])
c1cc(-c2ccc(OCCCCCc3nnn[nH]3)cn2)[nH]n1 [Example 62-1, 2-(1H-Pyrazol-5-yl)-5-[5-(1H-tetrazol-5-yl)pentoxy]pyridine] | 3500 nM | 28 nM | – | –
O=C(O)[C@@H]1CCCN(S(=O)(=O)c2cccc(COc3ccc(-c4ccn[nH]4)nc3)c2)C1 [Example 69-4-1] | – | – | 86 nM | 27 nM

From patent US11365192B2, “Pyridine compound substituted with azole” (TAISHO PHARMACEUTICAL CO., LTD., priority 2017, dated 2022)
